Test results as given in ChEMBL document CHEMBL1201862, “PubChem BioAssay data set” (2004).
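Cultured in 96-well plates, cells were exposed to test compound for 48 hours across five concentrations. Here, GI50 denotes the concentration required for 50% inhibition of growth.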 The source made the active and inactive calls. Cut-off read from the data, not from the text of the source: active = GI50 up to about 1.1 µM and inactive = higher.

Columns and labels:
Test in all cases: DTP human tumour cell line panel, 48 h
MDA-MB-231 = test system: MDA-MB-231
OVCAR-5 = test system: OVCAR-5
NCI-H460 = test system: NCI-H460
MDA-MB-435 = test system: MDA-MB-435
SK-MEL-5 = test system: SK-MEL-5
Malme-3M = test system: Malme-3M
NCI-H23 = test system: NCI-H23
RXF 393 = test system: RXF 393
TK-10 = test system: TK-10
IGROV-1 = test system: IGROV-1
EKVX = test system: EKVX
SNB-19 = test system: SNB-19
HOP-62 = test system: HOP-62
UO-31 = test system: UO-31
OVCAR-8 = test system: OVCAR-8
MOLT-4 = test system: MOLT-4
K562 = test system: K562
MCF7 = test system: MCF7
OVCAR-4 = test system: OVCAR-4
SF-268 = test system: SF-268
HCT-116 = test system: HCT-116
SK-MEL-28 = test system: SK-MEL-28
HCC 2998 = test system: HCC 2998
DU-145 = test system: DU-145
COLO 205 = test system: COLO 205
PC-3 = test system: PC-3
CAKI-1 = test system: CAKI-1
RPMI-8226 = test system: RPMI-8226
A549 = test system: A549
SF-539 = test system: SF-539
SK-OV-3 = test system: SK-OV-3
SR = test system: SR
786-0 = test system: 786-0
HT-29 = test system: HT-29
M14 = test system: M14
UACC-62 = test system: UACC-62
BT-549 = test system: BT-549
ACHN = test system: ACHN
LOX IMVI = test system: LOX IMVI
Hs-578T = test system: Hs-578T
OVCAR-3 = test system: OVCAR-3
SK-MEL-2 = test system: SK-MEL-2
NCI-H522 = test system: NCI-H522
HOP-92 = test system: HOP-92
HL-60 = test system: HL-60
SN12C = test system: SN12C
T47D = test system: T47D
HCT-15 = test system: HCT-15
SNB-75 = test system: SNB-75
SW-620 = test system: SW-620
MDA-N = test system: MDA-N
CCRF-CEM = test system: CCRF-CEM
U-251 = test system: U-251
UACC-257 = test system: UACC-257
A498 = test system: A498
SF-295 = test system: SF-295
NCI/ADR-RES = test system: NCI/ADR-RES
KM12 = test system: KM12
NCI-H226 = test system: NCI-H226

COc1cc(C(N)=O)cc(NC(=O)/C=C/c2ccccc2)c1OC
GI50 (MDA-MB-231): > 100 µM (inactive)
GI50 (OVCAR-5): > 100 µM (inactive)
GI50 (NCI-H460): > 100 µM (inactive)
GI50 (MDA-MB-435): > 100 µM (inactive)
GI50 (SK-MEL-5): 64.7 µM (inactive)
GI50 (Malme-3M): > 100 µM (inactive)
GI50 (NCI-H23): > 100 µM (inactive)
GI50 (RXF 393): > 100 µM (inactive)
GI50 (TK-10): > 100 µM (inactive)
GI50 (IGROV-1): > 100 µM (inactive)
GI50 (EKVX): 89.7 µM (inactive)
GI50 (SNB-19): 27.7 µM (inactive)
GI50 (HOP-62): > 100 µM (inactive)
GI50 (UO-31): > 100 µM (inactive)
GI50 (OVCAR-8): 61.8 µM (inactive)
GI50 (MOLT-4): > 100 µM (inactive)
GI50 (K562): > 100 µM (inactive)
GI50 (MCF7): > 100 µM (inactive)
GI50 (OVCAR-4): > 100 µM (inactive)
GI50 (SF-268): 64.3 µM (inactive)
GI50 (HCT-116): > 100 µM (inactive)
GI50 (SK-MEL-28): > 100 µM (inactive)
GI50 (HCC 2998): > 100 µM (inactive)
GI50 (DU-145): > 100 µM (inactive)
GI50 (COLO 205): > 100 µM (inactive)
GI50 (PC-3): > 100 µM (inactive)
GI50 (CAKI-1): > 100 µM (inactive)
GI50 (RPMI-8226): > 100 µM (inactive)
GI50 (A549): > 100 µM (inactive)
GI50 (SF-539): 83 µM (inactive)
GI50 (SK-OV-3): 49.4 µM (inactive)
GI50 (SR): 74.8 µM (inactive)
GI50 (786-0): > 100 µM (inactive)
GI50 (HT-29): > 100 µM (inactive)
GI50 (M14): > 100 µM (inactive)
GI50 (UACC-62): > 100 µM (inactive)
GI50 (BT-549): > 100 µM (inactive)
GI50 (ACHN): > 100 µM (inactive)
GI50 (LOX IMVI): > 100 µM (inactive)
GI50 (Hs-578T): > 100 µM (inactive)
GI50 (OVCAR-3): 97.5 µM (inactive)
GI50 (SK-MEL-2): > 100 µM (inactive)
GI50 (NCI-H522): 64.9 µM (inactive)
GI50 (HOP-92): 35.7 µM (inactive)
GI50 (HL-60): > 100 µM (inactive)
GI50 (SN12C): > 100 µM (inactive)
GI50 (T47D): 71.1 µM (inactive)
GI50 (HCT-15): > 100 µM
GI50 (SNB-75): 19.7 µM (inactive)
GI50 (SW-620): > 100 µM (inactive)
GI50 (MDA-N): > 100 µM (inactive)
GI50 (CCRF-CEM): > 100 µM (inactive)
GI50 (U-251): > 100 µM (inactive)
GI50 (UACC-257): > 100 µM (inactive)
GI50 (A498): > 100 µM (inactive)
GI50 (SF-295): 59.6 µM (inactive)
GI50 (NCI/ADR-RES): > 100 µM (inactive)
GI50 (KM12): > 100 µM (inactive)

Cc1cc(C)c2c(=O)n(CC(O)CN(Cc3ccccc3)CC(O)Cn3sc4nc(C)cc(C)c4c3=O)sc2n1 (stereo unspecified)
GI50 (MDA-MB-231): 17.7 µM (inactive)
GI50 (OVCAR-5): 20.1 µM (inactive)
GI50 (NCI-H460): 19.7 µM (inactive)
GI50 (MDA-MB-435): 17 µM (inactive)
GI50 (SK-MEL-5): 16.4 µM (inactive)
GI50 (Malme-3M): 14.3 µM (inactive)
GI50 (NCI-H23): 18 µM (inactive)
GI50 (RXF 393): 18.8 µM (inactive)
GI50 (TK-10): 17.4 µM (inactive)
GI50 (IGROV-1): 17.7 µM (inactive)
GI50 (EKVX): 22.2 µM (inactive)
GI50 (SNB-19): 18.5 µM (inactive)
GI50 (HOP-62): 14.4 µM (inactive)
GI50 (NCI-H226): 18.5 µM (inactive)
GI50 (UO-31): 17 µM (inactive)
GI50 (OVCAR-8): 18.9 µM (inactive)
GI50 (MOLT-4): 3.25 µM (inactive)
GI50 (K562): 24.2 µM (inactive)
GI50 (MCF7): 17.6 µM (inactive)
GI50 (OVCAR-4): 18.1 µM (inactive)
GI50 (SF-268): 17.1 µM (inactive)
GI50 (HCT-116): 17.3 µM (inactive)
GI50 (SK-MEL-28): 27.8 µM (inactive)
GI50 (HCC 2998): 18.8 µM (inactive)
GI50 (DU-145): 17.9 µM (inactive)
GI50 (COLO 205): 7.73 µM (inactive)
GI50 (PC-3): 16.8 µM (inactive)
GI50 (CAKI-1): 18.8 µM (inactive)
GI50 (RPMI-8226): 3.61 µM (inactive)
GI50 (A549): 19.9 µM (inactive)
GI50 (SF-539): 17.7 µM (inactive)
GI50 (SK-OV-3): 23.2 µM (inactive)
GI50 (SR): 8.99 µM (inactive)
GI50 (786-0): 14.6 µM (inactive)
GI50 (HT-29): 19.6 µM (inactive)
GI50 (M14): 17.4 µM (inactive)
GI50 (UACC-62): 16.9 µM (inactive)
GI50 (BT-549): 23.7 µM (inactive)
GI50 (ACHN): 16.5 µM (inactive)
GI50 (LOX IMVI): 19.2 µM (inactive)
GI50 (Hs-578T): 18.9 µM (inactive)
GI50 (OVCAR-3): 16.2 µM (inactive)
GI50 (SK-MEL-2): 17.7 µM (inactive)
GI50 (NCI-H522): 10 µM (inactive)
GI50 (HOP-92): 17.2 µM (inactive)
GI50 (HL-60): 33.2 µM (inactive)
GI50 (SN12C): 18.1 µM (inactive)
GI50 (T47D): 18.2 µM (inactive)
GI50 (HCT-15): 17.3 µM
GI50 (SNB-75): 15.5 µM (inactive)
GI50 (SW-620): 32 µM (inactive)
GI50 (MDA-N): 17.9 µM (inactive)
GI50 (CCRF-CEM): 6.05 µM (inactive)
GI50 (U-251): 16.9 µM (inactive)
GI50 (UACC-257): 17.2 µM (inactive)
GI50 (SF-295): 22.1 µM (inactive)
GI50 (NCI/ADR-RES): 22.4 µM (inactive)
GI50 (KM12): 17.2 µM (inactive)
